Measured values taken from US10093642B2, “Multitarget hedgehog pathway inhibitors and uses thereof” (UNIVERSITA' DEGLI STUDI DI SIENA, priority 2013, dated 2018).
pKd: −log10 of the molar value.

Tested on: not given
Test: not given
Settings: not given

Compound | melting point [°C]
COc1cc(OC)c2c(=O)c(-c3ccc(OC)c(OCc4ccccc4)c3)coc2c1 [NT9, 3-(3′-Benzyloxy-4′-methoxyphenyl)-5,7-dimethoxy-4H-chromen-4-one] | 126
COc1cc(OC)c2c(=O)c(-c3ccc(OC)c(OCc4ccc(C(F)(F)F)cc4)c3)coc2c1 [NT11, 5,7-Dimethoxy-3-[4-methoxy-3-(4-trifluoromethyl-benzyloxy)-phenyl]-chromen-4-one] | 128.6 to 129.1
COc1cc(OC)c2c(=O)c(-c3ccc(OCC=C(C)C)c(OC)c3)coc2c1 [NT12, 5,7-Dimethoxy-3-[3′-methoxy-4′-(3-methyl-but-2-enyloxy)-phenyl]-chromen-4-one] | 130.7 to 131.8
COc1cc(OC)c2c(=O)c(-c3ccc(OCc4ccccc4)c(OC)c3)coc2c1 [NT13, 3-(4-Benzyloxy-3-methoxy-phenyl)-5,7-dimethoxy-chromen-4-one] | 142.8 to 143.7
COc1cc(OC)c2c(=O)c(-c3ccc(OCc4ccc(C(F)(F)F)cc4)c(OC)c3)coc2c1 [NT15, 5,7-Dimethoxy-3-[3-methoxy-4-(4-trifluoromethyl-benzyloxy)-phenyl]-chromen-4-one] | 128.4 to 130.2

Biological target: SMO heptahelical domain (Homo sapiens, UniProt Q99835)
Test: not given
Settings: cited from earlier work

SMO heptahelical domain, sequence (Q99835 28-787): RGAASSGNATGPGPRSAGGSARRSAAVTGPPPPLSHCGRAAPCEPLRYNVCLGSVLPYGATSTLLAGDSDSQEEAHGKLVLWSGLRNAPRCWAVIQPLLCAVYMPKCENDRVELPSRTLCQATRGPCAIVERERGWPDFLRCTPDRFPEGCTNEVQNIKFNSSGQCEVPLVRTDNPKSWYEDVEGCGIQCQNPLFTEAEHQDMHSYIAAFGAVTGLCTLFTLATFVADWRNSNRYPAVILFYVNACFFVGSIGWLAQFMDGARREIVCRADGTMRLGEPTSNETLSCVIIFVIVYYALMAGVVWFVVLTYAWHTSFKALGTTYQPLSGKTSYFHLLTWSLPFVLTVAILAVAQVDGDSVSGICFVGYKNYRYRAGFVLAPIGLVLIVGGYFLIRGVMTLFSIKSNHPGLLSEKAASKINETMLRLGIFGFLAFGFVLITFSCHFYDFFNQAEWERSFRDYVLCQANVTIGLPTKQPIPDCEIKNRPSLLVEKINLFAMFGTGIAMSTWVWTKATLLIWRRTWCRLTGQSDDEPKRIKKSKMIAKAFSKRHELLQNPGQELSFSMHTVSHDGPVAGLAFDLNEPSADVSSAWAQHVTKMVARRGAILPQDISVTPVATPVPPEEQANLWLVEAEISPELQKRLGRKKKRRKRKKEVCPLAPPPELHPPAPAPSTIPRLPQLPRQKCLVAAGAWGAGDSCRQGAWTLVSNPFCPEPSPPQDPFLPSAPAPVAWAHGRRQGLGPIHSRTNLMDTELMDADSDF

Compound | pKd
CNC1CCC(N(Cc2cccc(-c3ccncc3)c2)C(=O)c2sc3ccccc3c2Cl)CC1 (stereo not drawn) [SAG] | 7.23

Tested on: Hh pathway (Gli-RE reporter, activated by SMO agonist SAG)
Test: Gli-luciferase reporter assay in SAG-treated NIH 3T3 Shh-light II cells
Assay type: cell-based
Settings: 5 μM, Shh Light II cells, preliminary results
Procedure: FIG. 4. Effect of active natural compounds identified by the pharmacophore screening in a luciferase assay, where the gene reporter was Gli1 and the pathway was activated by the SAG molecule, a potent SMO agonist. Natural compounds were tested at three different concentrations (1, 10 and 20 μM) and their activity was compared to that of cyclopamine, the natural compound reference inhibitor of the Hedgehog pathway, which was tested at the same doses (1, 10 and 20 μM). On both graphs the activity of cyclopamine is reported as reference standard. (A) cyclopamine, 2,4,5,3′,4′-penta-Ome chalcone and Auriculasin; (B) cyclopamine, Martinoside, Jaceidin, 2,4,5,3′,4′-penta-Ome chalcone, 3,4-di-MDO-2′,4′,5′-tri-Ome dihydrochalcone.
FIG. 6. Dose-response curve of Glabrescione B in SAG (Smoothened Agonist, 200 nM) treated NIH 3T3 Shh-light II (Shh-LII) cells. Treatment time was 48 h and normalization was against Renilla luciferase. Shown is the fold increase of Hh reporter activity compared with cells not treated with SAG.
FIG. 19. Effect of derivatives NT8, NT9, NT10, NT11, NT12, NT13, NT14 and NT15 on the Hedgehog pathway, measured at 5 μM dose in a luciferase assay where the gene reporter was Gli1 and the pathway was activated by the SAG molecule, a potent SMO agonist. […]
To investigate the inhibitory properties of Glabrescione B on Hh signaling, the inventors examined its effects in NIH 3T3 Shh-light II (Shh-LII) cells stably incorporating an Hh-responsive (Gli-RE) reporter, in which induction of the pathway occurs following treatment with the SMO agonist SAG. […] The IC50 in this assay was 0.8 μM.
The ability of Glabrescione B to suppress Hh signaling was assessed in a cellular context of Hh pathway induction. To this end, the antagonist properties of Glabrescione B were determined in Shh Light II (ATCC, cat. # CRL-2795), a murine fibroblast NIH 3T3 cell line. These cells, stably incorporating the Gli-luc reporter and the pRL-TK Renilla reniformis (as described in Taipale, Chen et al. 2000) are a standard tool used to assay Hh pathway activity. The cells that reached the confluence were treated for 48 h with the SMO agonist SAG (200 nM, Alexis, cat. #ALX-270-426-M001) in absence or in presence of Glabrescione B at the amount indicated in FIG. 6. […] Control cells were treated with only DMSO (0.5%, SERVA, cat. #39757.02) Determination of luciferase activities was carried out using the Dual-Luciferase assay according to manufacturer's instructions (Dual-Luciferase® Reporter assay system; Promega, cat. # E1980). All presented data are firefly luciferase activity reported to the Renilla control activity. […] IC50 of 0.8 μM, represents the concentration of Glabrescione B necessary to have fifty percent of inhibition.
Evaluation of the Hh inhibitory activity of these molecules at 5 μM was preliminarily conducted in vitro on Shh Light II cells (see example 2).

Compound | Hh inhibitory activity compared with Glabrescione B
COc1cc(OC)c2c(=O)c(-c3ccc(OC)c(OCC=C(C)C)c3)coc2c1 [NT8, 3-[3′-(3-methyl-but-2-enyloxy)-4′-methoxyphenyl]-5,7-dimethoxy-4H-chromen-4-one] | more potent than Glabrescione B
COc1cc(OC)c2c(=O)c(-c3ccc(OC)c(OCc4ccccc4)c3)coc2c1 [NT9, 3-(3′-Benzyloxy-4′-methoxyphenyl)-5,7-dimethoxy-4H-chromen-4-one] | more potent than Glabrescione B

Same assay, conditions: Gli1 gene reporter, pathway activated by SAG; cyclopamine as reference

Compound | effect on Hh pathway in luciferase assay
COc1ccc(C(=O)C=Cc2c(OC)cc(OC)c(OC)c2OC)cc1OC [2,3,4,6,3′,4′-hexa-OMe Chalcone] | inhibit the Hh pathway
COc1cc(OC)c(OC)cc1C=CC(=O)c1ccc(OC)c(OC)c1 [2,4,5,3′,4′-penta-OMe Chalcone] | inhibit the Hh pathway
COc1cc(OC)c(C(=O)CCc2ccc3c(c2)OCO3)cc1OC [3,4-di-MDO-2′,4′,5′-tri-OMe dihydrochalcone] | inhibit the Hh pathway
CC(C)=CCc1c2c(c(O)c3c(=O)c(-c4ccc(O)c(O)c4)coc13)C=CC(C)(C)O2 [Auriculasin] | inhibit the Hh pathway
COc1cc(-c2oc3cc(O)c(OC)c(O)c3c(=O)c2OC)ccc1O [Jaceidin] | inhibit the Hh pathway
COc1ccc(CCO[C@@H]2O[C@H](CO)[C@@H](OC(=O)/C=C/c3ccc(O)c(OC)c3)[C@H](O[C@@H]3O[C@@H](C)[C@H](O)[C@@H](O)[C@H]3O)[C@H]2O)cc1O [Martinoside] | inhibit the Hh pathway

Same assay, conditions: pharmacophore screening hits

Compound | activity as Hh inhibitor in luciferase assay (classification)
C[C@@H]1CC[C@]2(C(=O)O)CC[C@]3(C)C(=CC[C@@H]4[C@@]5(C)CC[C@@H](O)[C@](C)(CO)[C@@H]5CC[C@]43C)[C@@H]2[C@]1(C)O [Barbinervic Acid] | not active
COc1ccc([C@@H]2CC(=O)c3c(O)cc(O[C@@H]4O[C@H](CO[C@@H]5O[C@@H](C)[C@H](O)[C@@H](O)[C@H]5O)[C@@H](O)[C@H](O)[C@H]4O)cc3O2)cc1O [Hesperidin] | not active
CC(C)=CCc1c(O)ccc(C(=O)C2C(c3c(O)cc(/C=C/c4ccc(O)cc4O)cc3O)C=C(C)CC2c2ccc(O)cc2O)c1O (stereo not drawn) [Kuwanol-E] | not active
O=c1c(O)c(-c2cc(O)c(O)c(O)c2)oc2cc(O)cc(O)c12 [Myricetin] | not active
C[C@@H]1O[C@@H](O[C@H]2[C@H](Oc3cc(O)c4c(c3)O[C@H](c3ccc(O)cc3)CC4=O)O[C@H](CO)[C@@H](O)[C@@H]2O)[C@H](O)[C@H](O)[C@H]1O [Naringin] | not active
CC1=CC2c3c(O)cc(/C=C/c4ccc(O)cc4O)cc3OC3(c4ccc(O)c5c4OC(C)(C)C=C5)Oc4cc(O)ccc4C(C1)C23 (stereo not drawn) [Sorocein-A] | not active
CC1=CC2c3c(ccc(C(=O)/C=C/c4ccc(O)cc4O)c3O)OC3(c4ccc(O)c5c4OC(C)(C)C=C5)Oc4cc(O)ccc4C(C1)C23 (stereo not drawn) [Sorocein-B] | not active
Isosophoranon | not active
Veratrin | not active

Tested on: Hh pathway (Gli-RE reporter, activated by SMO agonist SAG)
Test: as above
Assay type: cell-based
Settings: Mus musculus, moderately active class

Compound | inhibition at 30 µM [%]
CC(C)=CCc1c2c(c(O)c3c(=O)c(-c4ccc(O)c(O)c4)coc13)C=CC(C)(C)O2 [Auriculasin] | ≤ 30
